In experiment [1] the test system is acute HIV infection of T-lymphoid cells. Nature of the experiment: Assay for inhibition of HIV replication (spread assay). In kind it is cell-based, HIV-1. To be noted: read-out: Spread - IC95. The procedure:
• Assay for Inhibition of HIV Replication
Assays for the inhibition of acute HIV infection of T-lymphoid cells were conducted in accordance with Vacca, J. P. et al., Proc. Natl. Acad. Sci. USA 1994, 91: 4096.

A further experiment deals with wild-type HIV-1 protease (Human immunodeficiency virus type 1 group M subtype B, UniProt P04585). As to the kind of experiment: Assay for inhibition of microbial expressed HIV protease. It counts as biochemical. Put shortly:
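E. coli-expressed protease (5 pM) preincubated with inhibitor 30 min at room temperature in 50 mM sodium acetate pH 5.5, 100 mM NaCl, 0.1% BSA. Substrate Val-Ser-Gln-Asn-(betanapthyl)Ala-Pro-Ile-Val at 440 micromolar, 1 h at 30° C; acid-quenched, product peak area by C18 HPLC gives inhibition.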

The mark [2] stands for this setting: Human immunodeficiency virus 1, T-lymphoid.
[3] abbreviates: wild-type HIV-1 protease expressed in E. coli, peptide substrate, pH 5.5, read-out: Enzyme Inhibition - IC50.

pIC50: −log10 of the molar value. Counter-ions that a name gives are not always drawn. Like-named read-outs stand apart in the source and are kept apart here.

The term IC95 denotes the concentration at which the effect reaches the 95% level. For orientation: pIC50 means the negative decadic logarithm of the IC50, by convention in mol/L.

For `CC[C@@H](CCC[C@@H](CO)N(CCC(C)C)S(=O)(=O)c1ccc(CO)cc1)NC(=O)[C@@H](NC(=O)OC)C(c1ccc(Cl)cc1)c1ccc(Cl)cc1` [Example J44, 4-chloro-β-(4-chlorophenyl)-N-{(1S,5S)-1-ethyl-6-hydroxy-5-[{[4-(hydroxymethyl)phenyl]sulfonyl}(3-methylbutyl)amino]hexyl}-Nα-(metboxycarbonyl)-L-phenylalaninamide], in experiment [1] (setting [2]), the IC95 is 0.126 µM. Besides, at wild-type HIV-1 protease (setting [3]), the pIC50 was 10.09.

Take `COC(=O)NC(Cc1cccc(Cl)c1Cl)C(=O)N[C@@H](C)CCC[C@@H](CO)N(C(C)C)S(=O)(=O)c1ccc(CO)cc1` (stereo partly drawn) [Example J45, 2,3-dichloro-N-{(1S,5S)-6-hydroxy-5-[{[4-(hydroxymethyl)phenyl]sulfonyl}(isopropyl)amino]-1-methylhexyl}-Nα-(methoxycarbonyl)phenylalaninamide]: the IC95 in experiment [1] (setting [2]) was determined as 0.08 µM. In addition, at wild-type HIV-1 protease (setting [3]), the pIC50 was 10.39.

In the case of `COC(=O)NC(C(=O)N[C@@H](C)CCC[C@@H](CO)N(C(C)C)S(=O)(=O)c1ccc(CO)cc1)C(c1cccc(F)c1)c1cccc(F)c1` (stereo partly drawn) [Example J46, 3-fluoro-β-(3-fluorophenyl)-N-{(1S,5S)-6-hydroxy-5-[{[4-(hydroxymethyl)phenyl]sulfonyl}(isopropyl)amino]-1-methylhexyl}-Nα-(methoxycarbonyl)phenylalaninamide], the IC95 in experiment [1] (setting [2]) is 0.018 µM. Besides, on wild-type HIV-1 protease (setting [3]), the pIC50 is 11.00.

Turning to `COC(=O)N[C@H](C(=O)N[C@@H](C)CCC[C@@H](CO)N(C(C)C)S(=O)(=O)c1ccc(CO)cc1)C(c1ccccc1)c1ccccc1` [Example K1, N-{(1S,5S)-6-hydroxy-5-[{[4-(hydroxymethyl)phenyl]sulfonyl}(isopropyl)amino]-1-methylhexyl}-Nα-(methoxycarbonyl)-β-phenyl-L-phenylalaninamide], the IC95 in experiment [1] (setting [2]) stood at 0.013 µM. Besides, at wild-type HIV-1 protease (setting [3]), the pIC50 is 10.74.

As for `CC[C@@H](CCC[C@@H](CO)N(C(C)C)S(=O)(=O)c1ccc(C(C)=O)cc1)NC(=O)[C@@H](NC(=O)OC)C(c1ccccc1)c1ccccc1` [Example K3, N-{(1S,5S)-5-[[(4-acetylphenyl)sulfonyl](isopropyl)amino]-1-ethyl-6-hydroxyhexyl}-Nα-(methoxycarbonyl)-β-phenyl-L-phenylalaninamide], the IC95 in experiment [1] (setting [2]) turned out to be 0.112 µM. Moreover, the pIC50 on wild-type HIV-1 protease (setting [3]) is 9.03.

As for `COC(=O)N[C@H](C(=O)N[C@@H](C)CCC[C@@H](CO)N(C(C)C)S(=O)(=O)c1ccc([C@H](C)O)cc1)C(c1ccccc1)c1ccccc1` [Example K4, N-{(1S,5S)-6-hydroxy-5-[({4-[(1S)-1-hydroxyethyl]phenyl}sulfonyl)(isopropyl)amino]-1-methylhexyl}-Nα-(methoxycarbonyl)-β-phenyl-L-phenylalaninamide], the IC95 in experiment [1] (setting [2]) came out at 0.019 µM. Also, on wild-type HIV-1 protease (setting [3]), the pIC50 is 10.82.

Regarding `COC(=O)N[C@H](C(=O)N[C@@H](C)CCC[C@@H](CO)N(C(C)C)S(=O)(=O)c1ccc(C(C)=O)cc1)C(c1ccccc1)c1ccccc1` [Example K5, N-{(1S,5S)-5-[[(4-acetylphenyl)sulfonyl](isopropyl)amino]-6-bydroxy-1-methylhexyl}-Nα-(methoxycarbonyl)-β-phenyl-L-phenylalaninamide], the IC95 in experiment [1] (setting [2]) was 0.041 µM. On wild-type HIV-1 protease (setting [3]), the pIC50 was 9.55.

As to `COC(=O)N[C@H](C(=O)NC1(CCC[C@@H](CO)N(CCC(C)C)S(=O)(=O)c2ccc(N)cc2)CCCC1)C(c1ccccc1)c1ccccc1` [Example L1, N-(1-{(4S)-4-[[(4-aminophenyl)sulfonyl](3-methylbutyl)amino]-5-hydroxypentyl}cyclopentyl)-Nα-(methoxycarbonyl)-β-phenyl-L-phenylalaninamide], the IC95 in experiment [1] (setting [2]) came out at 0.274 µM. At wild-type HIV-1 protease (setting [3]), the pIC50 is 9.43.

As to `CC(C)N([C@H](CO)CCCC(C)(C)NC(=O)[C@@H](N)C(c1ccccc1)c1ccccc1)S(=O)(=O)c1ccc(N)cc1` [Example L2, N-{(5S)-5-[[(4-aminophenyl)sulfonyl](isopropyl)amino]-6-hydroxy-1,1-dimethylhexyl}-β-phenyl-L-phenylalaninamide], in experiment [1] (setting [2]), the IC95 was determined as 0.023 µM. For the same compound, the pIC50 at wild-type HIV-1 protease (setting [3]) is 10.74.

On to `COC(=O)N[C@H](C(=O)NC1(CCCC(CO)N(CCC(C)C)S(=O)(=O)c2ccc(N)cc2)CCC1)C(c1ccccc1)c1ccccc1` (stereo partly drawn) [Example L3, N-(1-{4-[[(4-aminophenyl)sulfonyl](3-methylbutyl)amino]-5-hydroxypentyl}cyclobutyl)-Nα-(methoxycarbonyl)-β-phenyl-L-phenylalaninamide], for which the IC95 in experiment [1] (setting [2]) worked out at 0.471 µM. In addition, the pIC50 on wild-type HIV-1 protease (setting [3]) is 9.63.

With `COC(=O)N[C@H](C(=O)NC(C)(C)CCC[C@@H](CO)N(CCC(C)C)S(=O)(=O)c1ccc(N)cc1)C(c1ccccc1)c1ccccc1` [Example L4, N-{(5S)-5-[[(4-aminophenyl)sulfonyl](3-methylbutyl)amino]-6-hydroxy-1,1-dimethylhexyl}-Nα-(methoxycarbonyl)-β-phenyl-L-phenylalaninamide], the IC95 in experiment [1] (setting [2]) was 0.041 µM. Also, on wild-type HIV-1 protease (setting [3]), the pIC50 is 11.00.

`COC(=O)N[C@H](C(=O)NC(C)(C)CCC[C@@H](CO)N(CC(C)C)S(=O)(=O)c1ccc(N)cc1)C(c1ccccc1)c1ccccc1` [Example L5, N-{(5S)-5-[[(4-aminophenyl)sulfonyl](isobutyl)amino]-6-hydroxy-1,1-dimethylhexyl}-Nα-(methoxycarbonyl)-β-phenyl-L-phenylalaninamide]: the IC95 in experiment [1] (setting [2]) came to 0.185 µM. On wild-type HIV-1 protease (setting [3]), the pIC50 is 9.81.

For the compound `CCCN([C@H](CO)CCCC(C)(C)NC(=O)[C@@H](NC(=O)OC)C(c1ccccc1)c1ccccc1)S(=O)(=O)c1ccc(N)cc1` [Example L6, N-{(5S)-5-[[(4-aminophenyl)sulfonyl](propyl)amino]-6-hydroxy-1,1-dimethylhexyl}-Nα-(methoxycarbonyl)-β-phenyl-L-phenylalaninamide], the IC95 in experiment [1] (setting [2]) was 0.196 µM. In addition, the pIC50 at wild-type HIV-1 protease (setting [3]) is 10.02.

With `COC(=O)N[C@H](C(=O)NC(C)(C)CCC[C@@H](CO)N(CCCF)S(=O)(=O)c1ccc(N)cc1)C(c1ccccc1)c1ccccc1` [Example L7, N-{(5S)-5-[[(4-aminophenyl)sulfonyl](3-fluoropropyl)amino]-6-hydroxy-1,1-dimethylhexyl}-Nα-(methoxycarbonyl)-β-phenyl-L-phenylalaninamide], in experiment [1] (setting [2]), the IC95 turned out to be 0.178 µM. For the same compound, the pIC50 on wild-type HIV-1 protease (setting [3]) was 10.21.

As to `COC(=O)N[C@H](C(=O)NC(C)(C)CCC[C@@H](CO)N(C(C)C)S(=O)(=O)c1ccc(N)cc1)C(c1ccccc1)c1ccccc1` [Example L8], in experiment [1] (setting [2]), the IC95 was 0.264 µM. Besides, on wild-type HIV-1 protease (setting [3]), the pIC50 was 9.57.

For `CN[C@H](C(=O)NC(C)(C)CCC[C@@H](CO)N(C(C)C)S(=O)(=O)c1ccc(N)cc1)C(c1ccccc1)c1ccccc1` [Example L9, N-{(5S)-5-[[(4-aminophenyl)sulfonyl](isopropyl)amino]-6-hydroxy-1,1-dimethylhexyl}-Nα-methyl-β-phenyl-L-phenylalaninamide hydrochloride], the 95% effect concentration (IC95) in experiment [1] (setting [2]) was 0.026 µM. Also, on wild-type HIV-1 protease, the pIC50 is 10.00.

As to `CC(C)N([C@H](CO)CCCC(C)(C)NC(=O)[C@@H](N)Cc1ccccc1Cl)S(=O)(=O)c1ccc(N)cc1` [Example L10, N-{(5S)-5-[[(4-aminophenyl)sulfonyl](isopropyl)amino]-6-hydroxy-1,1-dimethylhexyl}-2-chloro-L-phenylalaninamide hydrochloride], the IC95 in experiment [1] (setting [2]) was 0.241 µM. The compound also gave a pIC50 against wild-type HIV-1 protease of 8.49.

On to “Methyl {(1S)-1-(diphenylmethyl)-2-[((5S)-6-hydroxy-2-methyl-5-{(3-methylbutyl) [(4-methylphenyl)sulfonyl]amino}hexylamino]-2-oxoethyl}carbamate [Example C1]”, for which the IC95 in experiment [1] (inhibition of HIV-1 replication, 10% FBS) worked out at 0.193 µM. Besides, the pIC50 on wild-type HIV-1 protease (setting [3]) was 9.70.

Values taken from patent US20100093811A1 (priority 2007, published 2010).
